Columns and labels:
Format in all cases: in vivo
[1] = system: Crabgrass (Digitaria sanguinalis); assay: Pre-Emergent Test, herbicidal effectiveness; conditions: pre-emergence, 504 h, 0-to-100 scale, read-out: Herbicidal Effectiveness, % Control Pre, C; for pest or weed control at 33 µg/cm2: 33 micrograms per cm^2, 3 weeks
Protocol: (§1) An acetone solution of the test compound was prepared by mixing 750 mg of the compound, 220 mg of a nonionic surfactant and 25 ml of acetone. This solution was added to approximately 125 ml of water containing 156 mg of surfactant.
(§2) Seeds of the test vegetation were planted in a pot of soil and the test solution was sprayed uniformly onto the soil surface at a dose of 33 micrograms/cm^2. The pot was watered and placed in a greenhouse. […] At the end of this period, the herbicidal effectiveness of the compound was rated based on the physiological observations. A 0-to-100 scale was used, 0 representing no phytotoxicity, 100 representing complete kill.

[2] = system: Mustard (Brassica arvensis); assay: Pre-Emergent Test, herbicidal effectiveness; conditions: pre-emergence, 504 h, 0-to-100 scale; for pest or weed control at 33 µg/cm2: 33 micrograms per cm^2, 3 weeks
Protocol: as §1, §2

[3] = system: Pigweed (Amaranthus retroflexus); assay: Pre-Emergent Test, herbicidal effectiveness; conditions: pre-emergence, 504 h, 0-to-100 scale, read-out: Herbicidal Effectiveness, % Control Pre, P; for pest or weed control at 33 µg/cm2: 33 micrograms per cm^2, 3 weeks
Protocol: as §1, §2

[4] = system: Lambsquarter (Chenopodium album); assay: Pre-Emergent Test, herbicidal effectiveness; conditions: pre-emergence, 504 h, 0-to-100 scale, read-out: Herbicidal Effectiveness, % Control Pre, L; for pest or weed control at 33 µg/cm2: 33 micrograms per cm^2, 3 weeks
Protocol: as §1, §2

Watergrass (Echinochloa) [5] = assay: Pre-Emergent Test, herbicidal effectiveness; conditions: pre-emergence, 504 h, 0-to-100 scale, read-out: Herbicidal Effectiveness, % Control Pre, W; for pest or weed control at 33 µg/cm2: 33 micrograms per cm^2, 3 weeks; for pest or weed control at 11 µg/cm2: 11 micrograms per cm^2, 3 weeks
Protocol: as §1, §2

Wild Oats (Avena fatua) [6] = assay: Pre-Emergent Test, herbicidal effectiveness; conditions: pre-emergence, 504 h, 0-to-100 scale, read-out: Herbicidal Effectiveness, % Control Pre, O; for pest or weed control at 33 µg/cm2: 33 micrograms per cm^2, 3 weeks; for pest or weed control at 11 µg/cm2: 11 micrograms per cm^2, 3 weeks
Protocol: as §1, §2

[7] = system: Crabgrass (Digitaria sanguinalis); assay: Post-Emergent Test, herbicidal effectiveness; conditions: post-emergence, 504 h, 33 micrograms per cm^2, 3 weeks, 0-to-100 scale, read-out: Herbicidal Effectiveness, % Control Post, C
[8] = system: Mustard (Brassica arvensis); assay: Post-Emergent Test, herbicidal effectiveness; conditions: post-emergence, 504 h, 33 micrograms per cm^2, 3 weeks, 0-to-100 scale
[9] = system: Pigweed (Amaranthus retroflexus); assay: Post-Emergent Test, herbicidal effectiveness; conditions: post-emergence, 504 h, 33 micrograms per cm^2, 3 weeks, 0-to-100 scale, read-out: Herbicidal Effectiveness, % Control Post, P
[10] = system: Lambsquarter (Chenopodium album); assay: Post-Emergent Test, herbicidal effectiveness; conditions: post-emergence, 504 h, 33 micrograms per cm^2, 3 weeks, 0-to-100 scale, read-out: Herbicidal Effectiveness, % Control Post, L
Watergrass (Echinochloa) [11] = assay: Post-Emergent Test, herbicidal effectiveness; conditions: post-emergence, 504 h, 33 micrograms per cm^2, 3 weeks, 0-to-100 scale, read-out: Herbicidal Effectiveness, % Control Post, W
Wild Oats (Avena fatua) [12] = assay: Post-Emergent Test, herbicidal effectiveness; conditions: post-emergence, 504 h, 33 micrograms per cm^2, 3 weeks, 0-to-100 scale, read-out: Herbicidal Effectiveness, % Control Post, O
[13] = 11 micrograms per cm^2, 3 weeks

Compound	pest or weed control at 33 µg/cm2 [1] [%]	pest or weed control at 33 µg/cm2 [2] [%]	pest or weed control at 33 µg/cm2 [3] [%]	pest or weed control at 33 µg/cm2 [4] [%]	pest or weed control at 33 µg/cm2 (Watergrass (Echinochloa) [5]) [%]	pest or weed control at 33 µg/cm2 (Wild Oats (Avena fatua) [6]) [%]	pest or weed control at 5000 µg/mL, 33 µg/cm2 [7] [%]	pest or weed control at 5000 µg/mL, 33 µg/cm2 [8] [%]	pest or weed control at 5000 µg/mL, 33 µg/cm2 [9] [%]	pest or weed control at 5000 µg/mL, 33 µg/cm2 [10] [%]	pest or weed control at 5000 µg/mL, 33 µg/cm2 (Watergrass (Echinochloa) [11]) [%]	pest or weed control at 5000 µg/mL, 33 µg/cm2 (Wild Oats (Avena fatua) [12]) [%]	pest or weed control at 11 µg/cm2 (Watergrass (Echinochloa) [5]) [%]	pest or weed control at 11 µg/cm2 [1, 13] [%]	pest or weed control at 11 µg/cm2 [2, 13] [%]	pest or weed control at 11 µg/cm2 [3, 13] [%]	pest or weed control at 11 µg/cm2 [4, 13] [%]	pest or weed control at 11 µg/cm2 (Wild Oats (Avena fatua) [6]) [%]
CCc1cccc(C)c1N(Cc1nnc[nH]1)C(=O)CCl [Compound 17B]	100	90	95	100	100	100	75	75	65	65	75	60	–	–	–	–	–	–
Cc1nnc(CN(C(=O)CCl)c2ccccc2C)[nH]1 [Compound 25B]	97	45	70	100	100	0	0	0	0	0	40	0	–	–	–	–	–	–
CCc1cccc(CC)c1N(Cc1nnc[nH]1)C(=O)CCl [Compound 20B]	95	95	100	97	100	97	30	30	35	25	55	0	–	–	–	–	–	–
Cc1nnc(CN(C(=O)CCl)c2c(C)cccc2Cl)[nH]1 [Compound 22B]	100	80	93	85	100	95	0	25	75	20	60	0	–	–	–	–	–	–
CCc1cccc(CC)c1N(Cc1nnc(C)[nH]1)C(=O)CCl [Compound 5B]	–	–	–	–	–	–	–	–	–	–	–	–	100	–	–	–	–	–
CCc1nnc(CN(C(=O)CCl)c2c(CC)cccc2CC)[nH]1 [Compound 8B]	–	–	–	–	–	–	–	–	–	–	–	–	100	100	83	90	100	99
CCc1cccc(C)c1N(Cc1nnc(C)[nH]1)C(=O)CCl [Compound 6B]	–	–	–	–	–	–	–	–	–	–	–	–	–	–	–	–	–	100
